Assay results: patent publication US20080200442A1, “Compositions and Methods for Treating, Reducing, Ameliorating, or Preventing Infections of the Ear or Upper Respiratory Tract” (priority 2007, published 2008)
In brackets after ≈: the same amount, converted by molar mass. Read-outs that look alike come from different tables or passages of the source.

How the values were obtained:
Assay type in all cases: cell-based
[1] = tested on: Veillonella parvula (GAI 5602); assay: In vitro anti-bacterial activity (MIC90), anaerobic reference bacteria
[2] = tested on: Corynebacterium species; assay: In vitro anti-bacterial activity (MIC90), ophthalmologic clinical bacteria isolates; conditions: Gram-positive
[3] = tested on: Gentamycin-resistant Pseudomonas aeruginosa; assay: as above
[4] = tested on: Bacteroides thetaiotaomicron (GAI 0659); assay: In vitro anti-bacterial activity (MIC90), anaerobic reference bacteria
[5] = tested on: Bacteroides fragillis (GAI 0675); assay: as above
[6] = tested on: Peptostreptococcus micros (GIFU 7824); assay: as above; conditions: Parvimonas micra
[7] = tested on: Moraxella species; assay: In vitro anti-bacterial activity (MIC90), ophthalmologic clinical bacteria isolates; conditions: Gram-negative
[8] = tested on: Streptococcus pneumoniae; assay: as above; conditions: Gram-positive
[9] = tested on: Staphylococcus aureus (No. 420); assay: In vitro anti-bacterial activity (MIC90), methicillin-resistant Staphylococcus aureus isolates; conditions: methicillin-resistant Staphylococcus aureus (No. 420)
Protocol: (§1) Anti-bacterial activity of the compound having Formula III was tested against several Gram-negative reference bacteria strains and compared to the anti-bacterial activity of three commercially available antibiotics (nadifloxacin, ofloxacin, and sparfloxacin). The results are shown in Table 2 as MIC90 values (minimum concentration of the active compound required to inhibit ninety percent of the growth of a specified pathogen, in μg/ml).
(§2) Anti-bacterial activity of the compound having Formula III was tested against some methicillin-resistant Staphylococcus aureus bacteria strains and compared to the anti-bacterial activity of three commercially available antibiotics (nadifloxacin, ofloxacin, and sparfloxacin).

[10] = tested on: Staphylococcus aureus (No. 419); assay: as above; conditions: methicillin-resistant Staphylococcus aureus (No. 419)
Protocol: as §1, §2

[11] = tested on: Staphylococcus aureus (No. 415); assay: as above; conditions: methicillin-resistant Staphylococcus aureus (No. 415)
Protocol: as §1, §2

[12] = tested on: Staphylococcus aureus (ATCC 33591); assay: as above; conditions: ATCC33591; methicillin-resistant Staphylococcus aureus (ATCC 33591)
Protocol: as §1, §2

[13] = tested on: Staphylococcus aureus (ATCC 33593); assay: as above; conditions: ATCC33593; methicillin-resistant Staphylococcus aureus (ATCC 33593)
Protocol: as §1, §2

[14] = tested on: Staphylococcus aureus (ATCC 33592); assay: as above; conditions: ATCC33592; methicillin-resistant Staphylococcus aureus (ATCC 33592)
Protocol: as §1, §2

[15] = tested on: Staphylococcus aureus (No. 421); assay: as above; conditions: methicillin-resistant Staphylococcus aureus (No. 421)
Protocol: as §1, §2

[16] = tested on: Staphylococcus aureus (No. 395); assay: as above; conditions: methicillin-resistant Staphylococcus aureus (No. 395)
Protocol: as §1, §2

[17] = tested on: Bacillis subtilis (ATCC 6633); assay: In vitro anti-bacterial activity (MIC90), Gram-positive reference strains
Protocol: as §1, with “μg/ml). Anti-bacterial activity of the compound having Formula III was tested against several Gram-positive reference bacteria strains and compared to the anti-bacterial activity of three commercially available antibiotics (nadifloxacin, ofloxacin, and sparfloxacin).” for “μg/ml).”

[18] = tested on: Streptococcus pyogenes (IID 698); assay: as above; conditions: IID698
Protocol: as §1, with “μg/ml). Anti-bacterial activity of the compound having Formula III was tested against several Gram-positive reference bacteria strains and compared to the anti-bacterial activity of three commercially available antibiotics (nadifloxacin, ofloxacin, and sparfloxacin).” for “μg/ml).”

[19] = tested on: Streptococcus faecalis (IFO 12964); assay: as above; conditions: Enterococcus faecalis, IFO12964
Protocol: as §1, with “μg/ml). Anti-bacterial activity of the compound having Formula III was tested against several Gram-positive reference bacteria strains and compared to the anti-bacterial activity of three commercially available antibiotics (nadifloxacin, ofloxacin, and sparfloxacin).” for “μg/ml).”

[20] = tested on: Staphylococcus aureus (FDA 209P); assay: as above; conditions: FDA209P
Protocol: as §1, with “μg/ml). Anti-bacterial activity of the compound having Formula III was tested against several Gram-positive reference bacteria strains and compared to the anti-bacterial activity of three commercially available antibiotics (nadifloxacin, ofloxacin, and sparfloxacin).” for “μg/ml).”

[21] = tested on: Sarcina lutea (ATCC 9341); assay: as above; conditions: Micrococcus luteus, ATCC9341
Protocol: as §1, with “μg/ml). Anti-bacterial activity of the compound having Formula III was tested against several Gram-positive reference bacteria strains and compared to the anti-bacterial activity of three commercially available antibiotics (nadifloxacin, ofloxacin, and sparfloxacin).” for “μg/ml).”

[22] = tested on: Staphylococcus aureus (ATCC 25933); assay: as above; conditions: ATCC25933
Protocol: as §1, with “μg/ml). Anti-bacterial activity of the compound having Formula III was tested against several Gram-positive reference bacteria strains and compared to the anti-bacterial activity of three commercially available antibiotics (nadifloxacin, ofloxacin, and sparfloxacin).” for “μg/ml).”

[23] = tested on: Streptococcus faecalis (ATCC 29212); assay: as above; conditions: Enterococcus faecalis, ATCC29212
Protocol: as §1, with “μg/ml). Anti-bacterial activity of the compound having Formula III was tested against several Gram-positive reference bacteria strains and compared to the anti-bacterial activity of three commercially available antibiotics (nadifloxacin, ofloxacin, and sparfloxacin).” for “μg/ml).”

[24] = tested on: Streptococcus pyogenes (Cook); assay: as above
Protocol: as §1, with “μg/ml). Anti-bacterial activity of the compound having Formula III was tested against several Gram-positive reference bacteria strains and compared to the anti-bacterial activity of three commercially available antibiotics (nadifloxacin, ofloxacin, and sparfloxacin).” for “μg/ml).”

[25] = tested on: Streptococcus pneumoniae (IID 553); assay: as above; conditions: IID553
Protocol: as §1, with “μg/ml). Anti-bacterial activity of the compound having Formula III was tested against several Gram-positive reference bacteria strains and compared to the anti-bacterial activity of three commercially available antibiotics (nadifloxacin, ofloxacin, and sparfloxacin).” for “μg/ml).”

[26] = tested on: Staphylococcus aureus (Smith); assay: as above
Protocol: as §1, with “μg/ml). Anti-bacterial activity of the compound having Formula III was tested against several Gram-positive reference bacteria strains and compared to the anti-bacterial activity of three commercially available antibiotics (nadifloxacin, ofloxacin, and sparfloxacin).” for “μg/ml).”

[27] = tested on: Streptococcus pneniae (IID 554); assay: as above; conditions: IID554
Protocol: as §1, with “μg/ml). Anti-bacterial activity of the compound having Formula III was tested against several Gram-positive reference bacteria strains and compared to the anti-bacterial activity of three commercially available antibiotics (nadifloxacin, ofloxacin, and sparfloxacin).” for “μg/ml).”

[28] = tested on: Staphylococcus epidermidis (ATCC 12228); assay: as above; conditions: ATCC12228
Protocol: as §1, with “μg/ml). Anti-bacterial activity of the compound having Formula III was tested against several Gram-positive reference bacteria strains and compared to the anti-bacterial activity of three commercially available antibiotics (nadifloxacin, ofloxacin, and sparfloxacin).” for “μg/ml).”

[29] = tested on: Salmonella typhimurium (TD); assay: In vitro anti-bacterial activity (MIC90), Gram-negative reference strains
Protocol: Anti-bacterial activity of the compound having Formula III was tested against several Gram-negative reference bacteria strains and compared to the anti-bacterial activity of three commercially available antibiotics (nadifloxacin, ofloxacin, and sparfloxacin).

[30] = tested on: Propionibacterium acnes (ATCC 6919); assay: In vitro anti-bacterial activity (MIC90), anaerobic reference bacteria; conditions: Cutibacterium acnes, ATCC6919
[31] = tested on: Gentamycin-resistant Staphylococcus aureus; assay: In vitro anti-bacterial activity (MIC90), ophthalmologic clinical bacteria isolates
[32] = tested on: Propionibacterium acnes (GAI 5419); assay: In vitro anti-bacterial activity (MIC90), anaerobic reference bacteria; conditions: Cutibacterium acnes
[33] = tested on: Clostridium perfringens (KZ 210); assay: microbe, parasite or virus in culture
[34] = tested on: Staphylococcus aureus; assay: In vitro anti-bacterial activity (MIC90), ophthalmologic clinical bacteria isolates; conditions: Gram-positive
[35] = tested on: Bacteroides vulgatus (GAI 0673); assay: In vitro anti-bacterial activity (MIC90), anaerobic reference bacteria; conditions: Phocaeicola vulgatus
[36] = tested on: Peptostreptococcus magnum (GAI 0664); assay: as above
[37] = tested on: Ofloxacin-resistant Staphylococcus aureus; assay: In vitro anti-bacterial activity (MIC90), ophthalmologic clinical bacteria isolates
[38] = tested on: Propionibacterium acnes (ATCC 11828); assay: In vitro anti-bacterial activity (MIC90), anaerobic reference bacteria; conditions: Cutibacterium acnes, ATCC11828
[39] = tested on: Haemophilus influenzae; assay: In vitro anti-bacterial activity (MIC90), ophthalmologic clinical bacteria isolates; conditions: Gram-negative
[40] = tested on: Pseudomonas aeruginosa; assay: as above; conditions: Gram-negative
[41] = tested on: Propionibacterium acnes; assay: as above; conditions: Cutibacterium acnes, Gram-positive
[42] = tested on: Coagulase-negative Staphylococcus; assay: as above; conditions: Gram-positive
[43] = tested on: Penicillin-resistant Streptococcus pneumoniae; assay: as above

## NC1CCCCN(c2c(F)cc3c(=O)c(C(=O)O)cn(C4CC4)c3c2Cl)C1 (centres unmarked) [Compound Having Formula III]
[1]
  MIC90: 0.1 µg/mL
[2]
  MIC90: 2 µg/mL
[3]
  MIC90: 32 µg/mL
[4]; anaerobic, Bacteroides thetaiotaomicron (GAI 0659), read-out: MIC90
  MIC90: 0.2 µg/mL
[5]
  MIC90: 0.1 µg/mL
[6]
  MIC90: 0.2 µg/mL
[7]
  MIC90: 0.13 µg/mL
[8]
  MIC90: 0.13 µg/mL
[9]
  MIC90: 0.1 µg/mL
[10]
  MIC90: 0.1 µg/mL
[11]
  MIC90: 0.05 µg/mL
[12]
  MIC90: 0.012 µg/mL
[13]
  MIC90: 0.012 µg/mL
[14]
  MIC90: 0.05 µg/mL
[15]
  MIC90: 0.2 µg/mL
[16]
  MIC90: 0.006 µg/mL
[17]
  MIC90: 0.012 µg/mL
[18]
  MIC90: 0.1 µg/mL
[19]
  MIC90: 0.1 µg/mL
[20]
  MIC90: 0.012 µg/mL
[21]
  MIC90: 0.1 µg/mL
[22]
  MIC90: 0.05 µg/mL
[23]
  MIC90: 0.2 µg/mL
[24]
  MIC90: 0.1 µg/mL
[25]
  MIC90: 0.1 µg/mL
[26]
  MIC90: 0.006 µg/mL
[27]
  MIC90: 0.2 µg/mL
[28]
  MIC90: 0.05 µg/mL
[29]
  MIC90: 0.05 mμg/mL
[30]
  MIC90: 0.2 µg/mL
[31]
  MIC90: 4 µg/mL
[32]
  MIC90: 0.2 µg/mL
[33]
  MIC90: 0.2 µg/mL
[34]
  MIC90: 1 µg/mL
[35]
  MIC90: 0.1 µg/mL
[36]
  MIC90: 0.05 µg/mL
[37]
  MIC90: 8 µg/mL
[38]
  MIC90: 0.39 µg/mL
[39]
  MIC90: ≤ 0.06 µg/mL
[40]
  MIC90: 4 µg/mL
[41]
  MIC90: 0.25 µg/mL
[42]
  MIC90: 0.5 µg/mL
[43]
  MIC90: 0.13 µg/mL

## CC1CCc2c(N3CCC(O)CC3)c(F)cc3c(=O)c(C(=O)O)cn1c23 (centres unmarked) [Nadifloxacin]
[1]
  MIC90: 0.78 µg/mL (≈ 2.16 µM)
[4]; Bacteroides thetaiotaomicron
  MIC90: 1.56 µg/mL (≈ 4.33 µM)
[5]
  MIC90: 1.56 µg/mL (≈ 4.33 µM)
[6]
  MIC90: 0.39 µg/mL (≈ 1.08 µM)
[9]
  MIC90: 0.78 µg/mL (≈ 2.16 µM)
[10]
  MIC90: 0.39 µg/mL (≈ 1.08 µM)
[11]
  MIC90: 0.1 µg/mL (≈ 0.277 µM)
[12]
  MIC90: 0.006 µg/mL (≈ 0.0166 µM)
[13]
  MIC90: 0.024 µg/mL (≈ 0.0666 µM)
[14]
  MIC90: 0.05 µg/mL (≈ 0.139 µM)
[15]
  MIC90: 0.78 µg/mL (≈ 2.16 µM)
[16]
  MIC90: 0.024 µg/mL (≈ 0.0666 µM)
[17]
  MIC90: 0.006 µg/mL (≈ 0.0166 µM)
[18]
  MIC90: 0.1 µg/mL (≈ 0.277 µM)
[19]
  MIC90: 0.78 µg/mL (≈ 2.16 µM)
[20]
  MIC90: 0.024 µg/mL (≈ 0.0666 µM)
[21]
  MIC90: 0.39 µg/mL (≈ 1.08 µM)
[22]
  MIC90: 0.05 µg/mL (≈ 0.139 µM)
[23]
  MIC90: 0.78 µg/mL (≈ 2.16 µM)
[24]
  MIC90: 0.78 µg/mL (≈ 2.16 µM)
[25]
  MIC90: 0.78 µg/mL (≈ 2.16 µM)
[26]
  MIC90: 0.024 µg/mL (≈ 0.0666 µM)
[27]
  MIC90: 0.78 µg/mL (≈ 2.16 µM)
[28]
  MIC90: 0.1 µg/mL (≈ 0.277 µM)
[29]
  MIC90: 0.2 mμg/mL
[30]
  MIC90: 0.2 µg/mL (≈ 0.555 µM)
[32]
  MIC90: 0.2 µg/mL (≈ 0.555 µM)
[33]
  MIC90: 0.2 µg/mL (≈ 0.555 µM)
[35]
  MIC90: 0.78 µg/mL (≈ 2.16 µM)
[36]
  MIC90: 0.2 µg/mL (≈ 0.555 µM)
[38]
  MIC90: 0.78 µg/mL (≈ 2.16 µM)
